Where a chain is given by its changes, count along the chain named. In names and notes the source's numbering stands.
B1: EB1 R17A H18A-GFP (natural protein, human, UniProt Q15691 1-268, looked up)
chain: MAVNVYSTSVTSDNLSAADMLAWINESLQLNLTKIEQLCSGAAYCQFMDMLFPGSIALKKVKFQAKLEHEYIQNFKILQAGFKRMGVDKIIPVDKLVKGKFQDNFEFVQWFKKFFDANYDGKDYDPVAARQGQETAVAPSLVAPALNKPKKPLTSSSAAPQRPISTQRTAAAPKAGPGVVRKNPGVGNGDDEAAELMQQVNVLKLTVEDLEKERDFYFGKLRNIELICQENEGENDPVLQRIVDILYATDEGFVIPDEGGPQEEQEEY
notes: EB1, human, full-length cDNA with R17A and H18A; Made with the WT EB1-GFP pET22b eGFP plasmid as template; also called R17A H18A EB1-GFP; mutant EB1-GFP; source: E. coli BL21 (DE3), purified (Ni-NTA)

Legend:
[1] = target: T1, full length EB1 (His-tagged) (Homo sapiens, UniProt Q15691); assay: isothermal titration calorimetry; format: binding; details: 80 mM PIPES, 1 mM EGTA, 1 mM MgCl2, pH 6.9, 25 °C; N fixed at 2; range over three experiments, printed jointly for EB1n and full length; saturation incomplete
T1 construct: gene MAPRE1; full length 268 residues, His-tagged, recombinant, purified as in authors' earlier work; dimer
T1 sequence (Q15691 1-268): B1 chain with A17R, A18H

[2] = target: T2, EB1n (EB1 N-terminus, residues 1-151) (Homo sapiens, UniProt Q15691); assay: isothermal titration calorimetry; format: binding; details: 80 mM PIPES, 1 mM EGTA, 1 mM MgCl2, pH 6.9, 25 °C; N fitted freely; range over three experiments, printed jointly for EB1n and full length; noisy data; NMR in other buffers gives mM Kd
T2 construct: gene MAPRE1; N-terminal fragment 1-151 containing CH domain (1-130); pET3d, E. coli BL21(DE3), untagged, cation exchange; mainly monomer
T2 sequence (Q15691 1-151): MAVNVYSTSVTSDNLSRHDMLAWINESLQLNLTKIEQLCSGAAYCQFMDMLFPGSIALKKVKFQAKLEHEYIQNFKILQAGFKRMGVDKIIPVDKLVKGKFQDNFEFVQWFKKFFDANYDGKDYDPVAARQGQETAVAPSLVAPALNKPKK

[3] = target: Microtubules polymerized from tubulin with GTPγS (UniProt P02550 1-451); assay: binding to microtubules held on coverslips, wash, SDS-PAGE of the bound protein; microtubules (40 µM tubulin, GTPγS) on poly-lysine coverslips, washed; 10 µM EB1-GFP protein added, 10 min at 37 °C (15 min in the legend), BRB80; unbound protein washed off; Coomassie bands normalized against tubulin; the paper calls it sedimentation; details: both partners purified
[4] = target: Rhodamine labeled microtubules polymerized with GTPγS (UniProt P02550 1-451, rhodamine on part of the tubulin (3 µM rhodamine-labeled tubulin with 40 µM tubulin)); which chain carries it is not stated | rhodamine on part of the tubulin (3 µM rhodamine-labeled tubulin with 40 …); assay: confocal fluorescence imaging of purified EB1-GFP on microtubules held on coverslips; rhodamine microtubules (GTPγS) on poly-lysine coverslips, washed free of GTPγS; 10 µM EB1-GFP protein added, 10 min, 37 °C, BRB80 pH 6.9; fixed with 1% glutaraldehyde; GFP intensity per pixel along microtubules; details: both partners purified

Row | Molecule | Kd [1] | Kd [2] | fold amount bound to microtubules against wild-type EB1 [3] | fold increase of GFP intensity per pixel on microtubules against wild-type EB1-GFP [4]
1 | Nc1nc2c(ncn2[C@@H]2O[C@H](COP(=O)(O)OP(=O)(O)OP(=O)(O)O)[C@@H](O)[C@H]2O)c(=O)[nH]1 [GTP] | ~10 to ~30 µM | ~10 to ~30 µM |  | 
2 | B1 |  |  | ~1.5 fold | ~2 fold

— article PMC6023887, “GTP-binding facilitates EB1 recruitment onto microtubules by relieving its auto-inhibition” (Scientific Reports, 2018)
